Patent US8470828B2, “Anellated pyridine compounds” (Hoffmann-La Roche Inc., priority 2010, dated 2013)

Legend:
[1] = target: T1, human D2 receptor (Homo sapiens, UniProt P14416); experiment: Radioligand binding to cloned human D2 receptor expressed in HEK-293 EBNA cells ([3H]-spiperone); settings: HEK293 EBNA cell membranes, approximately 0.7 nM [3H]-spiperone, 1 h at RT
T1 construct: expressed in transfected cells; host or cells: HEK293 EBNA cells, transient transfection; membrane preparation

[2] = target: human D3 receptor (Homo sapiens, UniProt P35462); experiment: Radioligand binding to cloned human D3 receptor expressed in HEK-293 EBNA cells ([3H]-spiperone)
[3] = target: human 5-HT2A receptor (Homo sapiens, UniProt P28223); experiment: Radioligand binding to cloned human 5-HT2A receptor expressed in HEK-293 EBNA cells ([3H]-ketanserin)
human 5-HT2A receptor, sequence (P28223 whole entry): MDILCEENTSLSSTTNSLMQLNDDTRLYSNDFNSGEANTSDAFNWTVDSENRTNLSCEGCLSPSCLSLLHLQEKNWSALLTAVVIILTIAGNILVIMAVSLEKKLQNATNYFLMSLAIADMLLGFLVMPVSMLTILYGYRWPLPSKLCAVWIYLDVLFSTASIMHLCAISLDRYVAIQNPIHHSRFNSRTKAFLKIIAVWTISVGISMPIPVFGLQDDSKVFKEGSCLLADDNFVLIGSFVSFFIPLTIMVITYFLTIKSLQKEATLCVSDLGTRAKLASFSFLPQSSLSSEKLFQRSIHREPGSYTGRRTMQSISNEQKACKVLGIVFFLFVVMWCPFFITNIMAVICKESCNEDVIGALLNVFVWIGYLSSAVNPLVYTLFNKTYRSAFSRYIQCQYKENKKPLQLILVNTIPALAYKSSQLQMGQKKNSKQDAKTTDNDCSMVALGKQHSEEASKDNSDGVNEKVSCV
Procedure: HEK293 EBNA cells were transiently transfected with expression plasmids encoding for the human D2 or D3 or for the human 5-HT2A receptor, respectively. The cells were harvested 48 h post-transfection, washed three times with cold PBS and stored at −80° C. prior to use. The pellet was suspended in cold 50 mM Tris-HCl buffer comprising 10 mM EDTA (pH 7.4) and was homogenized with a Polytron (Kinematica A G, Basel, Switzerland) for 20-30 sec at 12.000 rpm. After centrifugation at 48.000×g for 30 min at 4° C., the pellet was resuspended in cold 10 mM Tris-HCl buffer comprising 0.1 mM EDTA (pH 7.4), homogenized, and centrifuged as above. This pellet was further resuspended in a smaller volume of ice cold 10 mM Tris-HCl buffer comprising 0.1 mM EDTA (pH 7.4) and homogenized with a Polytron for 20-30 sec at 12.000 rpm. The protein content of this homogenate was determined with the Bio-Rad (Bradford) Protein Assay (Biorad Laboratories GmbH, München, Germany) according to the instructions of the manufacturer using gamma globulin as the standard. This homogenate was stored at −80° C. in aliquots and thawed immediately prior to use.
Aliquots of membrane preparations were thawed at RT, resupended in assay buffer (D2, D3: 50 mM Tris-HCl, 120 mM NaCl, 5 mM MgCl2, 1 mM EDTA, 5 mM KCl, 1.5 mM CaCl2, pH=7.4; 5-HT2A: 50 mM Tris-HCl, 10 mM MgCl2, 1 mM EGTA, pH=7.4), homogenized with a Polytron for 20-30 sec at 12.000 rpm and adjusted to a final concentration of approximately 7.5 μg protein/well (D2, D3) and 15 μg protein/well (5-HT2A), respectively.
The binding affinity (Ki) of the compounds was determined using radioligand binding. Membranes were incubated in a total volume of 200 μl with a fixed concentration of radioligand (final concentration approximately 0.7 nM [^3H]-spiperone for D2, 0.5 nM [^3H]-spiperone for D3, and 1.1 nM [^3H]-ketanserin for 5-HT2A) and ten concentrations of test compound in ranging between 10 μM-0.1 nM for 1 h at RT. At the end of the incubation, the reaction mixtures were filtered on to unifilter 96-well white microplates with bonded GF/C filters (Packard BioScience, Zürich, Switzerland; preincubated for 1 h in 0.1% polyethylenimine (PEI) in assay buffer) with a Filtermate 196 harvester (Packard BioScience) and washed 3 times with cold assay buffer. The nonspecific binding was determined with equally composed reaction mixtures in the presence of 10 μM unlabelled spiperone. Per well 45 μl of Microscint 40 (Perkin Elmer, Schwerzenbach, Switzerland) was added, plates for sealed, shaken for 20 min and counted for 3 min on a Topcount Microplate Scintillation Counter (Can berra Packard S A, Zürich, Switzerland) with quenching correction.
The CPM value for each duplicate of a concentration of competing compound was averaged (y1), then the % specific binding was calculated according to the equation (((y1−non-specific)/(total binding−non-specific))×100). Graphs were plotted with the % specific binding using XLfit, a curve fitting program that iteratively plots the data using Levenberg-Marquardt algorithm. The single site competition analysis equation used was y=A+((B−A)/(1+((x/C)D))), where y is the % specific binding, A is the minimum y, B is the maximum y, C is the IC50, x is the log 10 of the concentration of the competing compound and D is the slope of the curve (the Hill Coefficient). […] The affinity constant (Ki) was calculated using the Cheng-Prusoff equation Ki=(IC50/1+([L]/Kd), where [L] is the concentration of radioligand and Kd is the dissociation constant of the radioligand at the receptor as determined by the saturation isotherm.

human D3 receptor, sequence (P35462 whole entry): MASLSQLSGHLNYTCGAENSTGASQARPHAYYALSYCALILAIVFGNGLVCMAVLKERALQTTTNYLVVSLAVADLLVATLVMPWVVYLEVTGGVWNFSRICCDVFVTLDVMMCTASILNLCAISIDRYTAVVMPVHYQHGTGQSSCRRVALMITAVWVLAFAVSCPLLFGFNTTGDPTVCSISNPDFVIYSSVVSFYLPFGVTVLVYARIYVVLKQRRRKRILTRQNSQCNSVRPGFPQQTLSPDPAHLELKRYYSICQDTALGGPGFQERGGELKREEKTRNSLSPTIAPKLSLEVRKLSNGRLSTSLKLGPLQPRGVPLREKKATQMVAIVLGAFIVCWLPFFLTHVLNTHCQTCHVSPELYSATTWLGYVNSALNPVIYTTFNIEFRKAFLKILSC
T1 sequence (P14416 whole entry): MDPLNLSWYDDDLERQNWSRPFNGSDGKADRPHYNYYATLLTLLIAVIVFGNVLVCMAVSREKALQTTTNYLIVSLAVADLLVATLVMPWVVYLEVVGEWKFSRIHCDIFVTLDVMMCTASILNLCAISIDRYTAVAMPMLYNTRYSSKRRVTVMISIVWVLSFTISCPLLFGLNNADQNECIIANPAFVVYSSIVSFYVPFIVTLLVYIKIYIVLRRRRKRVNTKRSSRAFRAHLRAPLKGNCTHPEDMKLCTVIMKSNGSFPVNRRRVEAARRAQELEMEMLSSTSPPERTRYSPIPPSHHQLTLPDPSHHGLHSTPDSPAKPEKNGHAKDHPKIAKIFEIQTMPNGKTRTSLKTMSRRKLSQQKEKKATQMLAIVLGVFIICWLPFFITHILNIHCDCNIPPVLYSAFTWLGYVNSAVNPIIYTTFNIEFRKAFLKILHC

Ki [1] | melting point | Ki [2] | Ki [3] | D2 Ki [1] | SMILES
904 nM | 139 °C | 14 nM | 49.6 nM |  | CC(C)(O)CC(=O)N[C@H]1CC[C@H](CCN2CCN(c3nccc4c3OCC4)CC2)CC1 [Example 46, trans-N-(4-{2-[4-(2,3-Dihydro-furo[2,3-c]pyridin-7-yl)-piperazin-1-yl]-ethyl}-cyclohexyl)-3-hydroxy-3-methyl-butyramide]
943 nM | 214.5 °C | 15 nM | 89 nM |  | O=C(C[C@@H](O)C(F)(F)F)N[C@H]1CC[C@H](CCN2CCN(c3nccc4c3OCC4)CC2)CC1 [Example 47, trans-(R)—N-(4-{2-[4-(2,3-Dihydro-furo[2,3-c]pyridin-7-yl)-piperazin-1-yl]-ethyl}-cyclohexyl)-4,4,4-trifluoro-3-hydroxy-butyramide]
1090 nM | 217 °C | 18.2 nM | 56.8 nM |  | CC[C@H](O)CC(=O)N[C@H]1CC[C@H](CCN2CCN(c3nccc4c3OCC4)CC2)CC1 [Example 48, trans-(S)-3-Hydroxy-pentanoic acid (4-{2-[4-(2,3-dihydro-furo[2,3-c]pyridin-7-yl)-piperazin-1-yl]-ethyl}-cyclohexyl)-amide]
723 nM | 257 °C | 10.4 nM | 82.3 nM |  | O=C(CCO)N[C@H]1CC[C@H](CCN2CCN(c3nccc4c3OCC4)CC2)CC1 [Example 49, trans-N-(4-{2-[4-(2,3-Dihydro-furo[2,3-c]pyridin-7-yl)-piperazin-1-yl]-ethyl}-cyclohexyl)-3-hydroxy-propionamide]
551 nM | 198.5 °C | 29.5 nM | 45.7 nM |  | O=C(N[C@H]1CC[C@H](CCN2CCN(c3nccc4c3OCC4)CC2)CC1)C(F)(F)F [Example 50, trans-N-(4-{2-[4-(2,3-Dihydro-furo[2,3-c]pyridin-7-yl)-piperazin-1-yl]-ethyl}-cyclohexyl)-2,2,2-trifluoro-acetamide]
726 nM | 168 °C | 10.4 nM | 50.3 nM |  | CCCCC(=O)N[C@H]1CC[C@H](CCN2CCN(c3nccc4c3OCC4)CC2)CC1 [Example 51, Pentanoic acid trans-(4-{2-[4-(2,3-dihydro-furo[2,3-c]pyridin-7-yl)-piperazin-1-yl]-ethyl}-cyclohexyl)-amide]
948 nM | 199 °C | 13.4 nM | 44 nM |  | CO[C@H]1CC[C@H](CC(=O)N[C@H]2CC[C@H](CCN3CCN(c4nccc5c4OCC5)CC3)CC2)C1 [Example 52, trans-N-(4-{2-[4-(2,3-Dihydro-furo[2,3-c]pyridin-7-yl)-piperazin-1-yl]-ethyl}-cyclohexyl)-2-((1S,3S)-3-methoxy-cyclopentyl)-acetamide]
1110 nM | 153.5 °C | 23.1 nM | 70.2 nM |  | O=CN[C@H]1CC[C@H](CCN2CCN(c3nccc4c3OCC4)CC2)CC1 [Example 53, trans-N-(4-{2-[4-(2,3-Dihydro-furo[2,3-c]pyridin-7-yl)-piperazin-1-yl]-ethyl}-cyclohexyl)-formamide]
2390 nM | 251.5 °C | 12.6 nM | 66.7 nM |  | O=C(N[C@H]1CC[C@H](CCN2CCN(c3nccc4c3OCC4)CC2)CC1)c1ccc(Cl)cc1 [Example 54, trans-4-Chloro-N-(4-{2-[4-(2,3-dihydro-furo[2,3-c]pyridin-7-yl)-piperazin-1-yl]-ethyl}-cyclohexyl)-benzamide]
 | 242.5 °C | 51.5 nM | 78.7 nM | inactive | O=C(N[C@H]1CC[C@H](CCN2CCN(c3nccc4c3OCC4)CC2)CC1)c1ccc(C(F)(F)F)cc1 [Example 55, trans-N-(4-{2-[4-(2,3-Dihydro-furo[2,3-c]pyridin-7-yl)-piperazin-1-yl]-ethyl}-cyclohexyl)-4-trifluoromethyl-benzamide]
1930 nM | 183 °C | 79.5 nM | 67.4 nM |  | CC(C)(C)c1ccc(C(=O)N[C@H]2CC[C@H](CCN3CCN(c4nccc5c4OCC5)CC3)CC2)cc1 [Example 56, trans-4-tert-Butyl-N-(4-{2-[4-(2,3-dihydro-furo[2,3-c]pyridin-7-yl)-piperazin-1-yl]-ethyl}-cyclohexyl)-benzamide]
1760 nM | 182.5 °C | 42.7 nM | 50.6 nM |  | O=C(N[C@H]1CC[C@H](CCN2CCN(c3nccc4c3OCC4)CC2)CC1)c1ccc(N2CCCCC2)cc1 [Example 57, trans-N-(4-{2-[4-(2,3-Dihydro-furo[2,3-c]pyridin-7-yl)-piperazin-1-yl]-ethyl}-cyclohexyl)-4-piperidin-1-yl-benzamide]
1130 nM | 241 °C | 44.7 nM | 8.48 nM |  | CC(C)(O)C(=O)N[C@H]1CC[C@H](CCN2CCN(c3nccc4c3OCC4)CC2)CC1 [Example 59, trans-N-(4-{2-[4-(2,3-Dihydro-furo[2,3-c]pyridin-7-yl)-piperazin-1-yl]-ethyl}-cyclohexyl)-2-hydroxy-2-methyl-propionamide]
348 nM | 213.5 °C | 7.32 nM | 23 nM |  | O=C(N[C@H]1CC[C@H](CCN2CCN(c3nccc4c3OCC4)CC2)CC1)c1ccc2c(c1)OCO2 [Example 60, Benzo[1,3]dioxole-5-carboxylic acid trans-(4-{2-[4-(2,3-dihydro-furo[2,3-c]pyridin-7-yl)-piperazin-1-yl]-ethyl}-cyclohexyl)-amide]
488 nM | 199 °C | 26.1 nM | 48.6 nM |  | Cc1cc(C(=O)N[C@H]2CC[C@H](CCN3CCN(c4nccc5c4OCC5)CC3)CC2)on1 [Example 61, 3-Methyl-isoxazole-5-carboxylic acid trans-(4-{2-[4-(2,3-dihydro-furo[2,3-c]pyridin-7-yl)-piperazin-1-yl]-ethyl}-cyclohexyl)-amide]
1280 nM | 218 °C | 7.22 nM | 38.2 nM |  | COC(CC(=O)N[C@H]1CC[C@H](CCN2CCN(c3nccc4c3OCC4)CC2)CC1)OC [Example 62, trans-N-(4-{2-[4-(2,3-Dihydro-furo[2,3-c]pyridin-7-yl)-piperazin-1-yl]-ethyl}-cyclohexyl)-3,3-dimethoxy-propionamide]
1920 nM | 204.5 °C | 22.1 nM | 35.3 nM |  | COC(CCC(=O)N[C@H]1CC[C@H](CCN2CCN(c3nccc4c3OCC4)CC2)CC1)OC [Example 63, trans-N-(4-{2-[4-(2,3-Dihydro-furo[2,3-c]pyridin-7-yl)-piperazin-1-yl]-ethyl}-cyclohexyl)-4,4-dimethoxy-butyramide]
 | 227.5 °C | 4.43 nM | 54.4 nM | inactive | Cc1nc(-c2cccc(C(=O)N[C@H]3CC[C@H](CCN4CCN(c5nccc6c5OCC6)CC4)CC3)c2)no1 [Example 64, trans-N-(4-{2-[4-(2,3-Dihydro-furo[2,3-c]pyridin-7-yl)-piperazin-1-yl]-ethyl}-cyclohexyl)-3-(5-methyl-[1,2,4]oxadiazol-3-yl)-benzamide]
502 nM | 225.5 °C | 11.1 nM | 29.2 nM |  | O=C(N[C@H]1CC[C@H](CCN2CCN(c3nccc4c3OCC4)CC2)CC1)c1ccc(-n2cccn2)cc1 [Example 65, trans-N-(4-{2-[4-(2,3-Dihydro-furo[2,3-c]pyridin-7-yl)-piperazin-1-yl]-ethyl}-cyclohexyl)-4-pyrazol-1-yl-benzamide]
240 nM | 236.5 °C | 13.8 nM | 38 nM |  | O=C(N[C@H]1CC[C@H](CCN2CCN(c3nccc4c3OCC4)CC2)CC1)c1ccc(-n2cccc2)cc1 [Example 66, trans-N-(4-{2-[4-(2,3-Dihydro-furo[2,3-c]pyridin-7-yl)-piperazin-1-yl]-ethyl}-cyclohexyl)-4-pyrrol-1-yl-benzamide]
5050 nM | 243.5 °C | 47.2 nM | 93.3 nM |  | O=C(N[C@H]1CC[C@H](CCN2CCN(c3nccc4c3OCC4)CC2)CC1)c1ccc(Cl)cc1Cl [Example 67, trans-2,4-Dichloro-N-(4-{2-[4-(2,3-dihydro-furo[2,3-c]pyridin-7-yl)-piperazin-1-yl]-ethyl}-cyclohexyl)-benzamide]
120 nM | 235.5 °C | 6 nM | 4.86 nM |  | CN1CCN(c2ccc(C(=O)N[C@H]3CC[C@H](CCN4CCN(c5nccc6c5OCC6)CC4)CC3)cc2)CC1 [Example 68, trans-N-(4-{2-[4-(2,3-Dihydro-furo[2,3-c]pyridin-7-yl)-piperazin-1-yl]-ethyl}-cyclohexyl)-4-(4-methyl-piperazin-1-yl)-benzamide]
597 nM | 204 °C | 17.3 nM | 25.2 nM |  | Cc1ccc(C(=O)N[C@H]2CC[C@H](CCN3CCN(c4nccc5c4OCC5)CC3)CC2)cn1 [Example 69, trans-N-(4-{2-[4-(2,3-Dihydro-furo[2,3-c]pyridin-7-yl)-piperazin-1-yl]-ethyl}-cyclohexyl)-6-methyl-nicotinamide]
556 nM | 220.5 °C | 18.4 nM | 45.6 nM |  | O=C(N[C@H]1CC[C@H](CCN2CCN(c3nccc4c3OCC4)CC2)CC1)c1ccc(-c2ccccc2)cc1 [Example 70, Biphenyl-4-carboxylic acid trans-(4-{2-[4-(2,3-dihydro-furo[2,3-c]pyridin-7-yl)-piperazin-1-yl]-ethyl}-cyclohexyl)-amide]
